From patent publication US11058688B2, “Imidazopiperazine inhibitors of transcription activating proteins” (Board of Regents, The University of Texas System, priority 2018, dated 2021)

Legend:
[1] = biological target: BRD4(49-170) bromodomain (Homo sapiens (Human), UniProt O60885); assay: BRD4 AlphaScreen Assay; details: binding to biotin-H4(1-21) Ac-K5/8/12/16 peptide
In short: (§1)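 IC50 values derived by variable-slope dose-response fit between negative and DMSO control signals. AlphaScreen signal reports bromodomain association with an H4(1-21) peptide acetylated at K5, K8, K12 and K16.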

[2] = biological target: GST-CBP(1081-1197) bromodomain (Homo sapiens (Human), UniProt Q92793); assay: CBP AlphaScreen Assay; details: binding to biotin-H4(1-21) Ac-K5/8/12/16 peptide
GST-CBP(1081-1197) bromodomain, sequence (Q92793 1081-1197): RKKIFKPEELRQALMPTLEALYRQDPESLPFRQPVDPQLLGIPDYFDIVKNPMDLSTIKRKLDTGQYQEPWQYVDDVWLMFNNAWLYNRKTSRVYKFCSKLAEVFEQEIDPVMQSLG
In short: as §1

Structure (SMILES)	IC50 [1] [nM]	IC50 [2] [nM]
CC(=O)N1CCn2c(C3CC3)nc(N3CCCc4cc(-c5ccnc(C(F)(F)F)c5)ccc43)c2C1 [Example 118, 1-(3-cyclopropyl-1-(6-(2-(trifluoromethyl)pyridin-4-yl)-3,4-dihydroquinolin-1(2H)-yl)-5,6-dihydroimidazo[1,5-a]pyrazin-7(8H)-yl)ethan-1-one]	> 25000	715
CC(=O)N1CCn2c(C3CC3)nc(-c3cnc(N)c(OC(F)(F)F)c3)c2C1 [Example 41, 1-(1-(6-amino-5-(trifluoromethoxy)pyridin-3-yl)-3-cyclopropyl-5,6-dihydroimidazo[1,5-a]pyrazin-7(8H)-yl)ethan-1-one]	> 25000	4490
CC(=O)N1CCn2c(C3CC3)nc(N3CCCc4cc(-c5ccc(C(N)=O)cc5)ccc43)c2C1 [Example 35, 4-(1-(7-Acetyl-3-cyclopropyl-5,6,7,8-tetrahydroimidazo[1,5-a]pyrazin-1-yl)-1,2,3,4-tetrahydroquinolin-6-yl)benzamide]	> 25000	79
CNC(=O)N1CCn2c(C3CC3)nc(-c3cccc4cc(C5CCOCC5)ncc34)c2C1 [Example 21, 3-Cyclopropyl-N-methyl-1-(3-(tetrahydro-2H-pyran-4-yl)isoquinolin-8-yl)-5,6-dihydroimidazo[1,5-a]pyrazine-7(8H)-carboxamide]	> 25000	20
CC(=O)N1CCn2c(C3CC3)nc(-c3ccc4c(c(-c5cnn(C)c5)nn4C)c3F)c2C1 [Example 25, 1-(3-cyclopropyl-1-(4-fluoro-1-methyl-3-(1-methyl-1H-pyrazol-4-yl)-1H-indazol-5-yl)-5,6-dihydroimidazo[1,5-a]pyrazin-7(8H)-yl)ethan-1-one]	15900	57
CNC(=O)N1CCn2c(C3CCC(F)(F)CC3)nc(-c3c(F)ccc4cc(-c5cn(C)nc5C)ncc34)c2C1 [Example 81, 3-(4,4-difluorocyclohexyl)-1-(3-(1,3-dimethyl-1H-pyrazol-4-yl)-7-fluoroisoquinolin-8-yl)-N-methyl-5,6-dihydroimidazo[1,5-a]pyrazine-7(8H)-carboxamide]	10500	11
CC(=O)N1CCn2c(C3CCC3)nc(-c3ccc4c(c3)c(-c3cnn(C)c3)nn4C)c2C1 [Example 46, 1-(3-cyclobutyl-1-(1-methyl-3-(1-methyl-1H-pyrazol-4-yl)-1H-indazol-5-yl)-5,6-dihydroimidazo[1,5-a]pyrazin-7(8H)-yl)ethan-1-one]	> 10000	52
CNC(=O)N1CCn2c(C3CC3)nc(-c3c(F)ccc4cc(-c5cnc(C)s5)ncc34)c2C1 [Example 22, 3-Cyclopropyl-1-(7-fluoro-3-(2-methylthiazol-5-yl)isoquinolin-8-yl)-N-methyl-5,6-dihydroimidazo[1,5-a]pyrazine-7(8H)-carboxamide]	7060	3
CC(=O)N1CCn2c(C3CC3)nc(-c3ccc4c(cnn4C)c3)c2C1 [Example 43, 1-(3-cyclopropyl-1-(1-methyl-1H-indazol-5-yl)-5,6-dihydroimidazol[1,5-a]pyrazin-7(8H)-yl)ethan-1-one]	> 25000	3190
CC(=O)N1CCn2c(C3CC3)nc(N3CCCc4cc(-c5cnn(C6CCC6)c5)ccc43)c2C1 [Example 119, 1-(1-(6-(1-cyclobutyl-1H-pyrazol-4-yl)-3,4-dihydroquinolin-1(2H)-yl)-3-cyclopropyl-5,6-dihydroimidazo[1,5-a]pyrazin-7(8H)-yl)ethan-1-one]	> 25000	313
CC(=O)N1CCC(c2nc(-c3ccc4c(c3)c(-c3cnn(C)c3)nn4C)c3n2CCN(C(C)=O)C3)CC1 [Example 53, 1-(4-(7-acetyl-1-(1-methyl-3-(1-methyl-1H-pyrazol-4-yl)-1H-indazol-5-yl)-5,6,7,8-tetrahydroimidazo[1,5-a]pyrazin-3-yl)piperidin-1-yl)ethan-1-one]	> 10000	176
CNC(=O)N1CCn2c(C3CCOCC3)nc(-c3cccc4nc(-c5cnn(C)c5)c(C(F)F)cc34)c2C1 [Example 123, 1-(3-(difluoromethyl)-2-(1-methyl-1H-pyrazol-4-yl)quinolin-5-yl)-N-methyl-3-(tetrahydro-2H-pyran-4-yl)-5,6-dihydroimidazo[1,5-a]pyrazine-7(8H)-carboxamide]	> 25000	19
CNC(=O)N1CCn2c(C3CCC(F)(F)CC3)nc(-c3c(F)ccc4cc(C5CCOCC5)ncc34)c2C1 [Example 90, 3-(4,4-difluorocyclohexyl)-1-(7-fluoro-3-(tetrahydro-2H-pyran-4-yl)isoquinolin-8-yl)-N-methyl-5,6-dihydroimidazo[1,5-a]pyrazine-7(8H)-carboxamide]	10200	4
CNC(=O)N1CCn2c(C3CCC(F)(F)C3)nc(-c3cccc4nc(-c5cnn(C)c5)c(C(F)F)cc34)c2C1 (stereo not drawn) [Example 61, 3-(3,3-difluorocyclopentyl)-1-(3-(difluoromethyl)-2-(1-methyl-1H-pyrazol-4-yl)quinolin-5-yl)-N-methyl-5,6-dihydroimidazo[1,5-a]pyrazine-7(8H)-carboxamide]	13900	25
CNC(=O)N1CCn2c(C3CC3)nc(-c3cccc4nc(-c5cn(C)nc5C)c(C(F)(F)F)cc34)c2C1 [Example 101, 3-cyclopropyl-1-(2-(1,3-dimethyl-1H-pyrazol-4-yl)-3-(trifluoromethyl)quinolin-5-yl)-N-methyl-5,6-dihydroimidazo[1,5-a]pyrazine-7(8H)-carboxamide]	24700	19
CC(=O)N1CCn2c(C3CCOC3)nc(-c3cc4c(-c5cnn(C)c5)nn(C)c4cc3F)c2C1 (stereo not drawn) [Example 103, 1-(1-(6-fluoro-1-methyl-3-(1-methyl-1H-pyrazol-4-yl)-1H-indazol-5-yl)-3-(tetrahydrofuran-3-yl)-5,6-dihydroimidazo[1,5-a]pyrazin-7(8H)-yl)ethan-1-one]	> 25000	147
CC(=O)N1CCn2c(C)nc(-c3ccc4c(c3)c(-c3cnn(C)c3)nn4C)c2C1 [Example 47, 1-(3-methyl-1-(1-methyl-3-(1-methyl-1H-pyrazol-4-yl)-1H-indazol-5-yl)-5,6-dihydroimidazo[1,5-a]pyrazin-7(8H)-yl)ethan-1-one]	> 10000	153
CC(=O)N1CCn2c(Cl)nc(-c3ccc4c(c3)c(-c3cnn(C)c3)nn4C)c2C1 [Example 32, 1-(3-Chloro-1-(1-methyl-3-(1-methyl-1H-pyrazol-4-yl)-1H-indazol-5-yl)-5,6-dihydroimidazo[1,5-a]pyrazin-7(8H)-yl)ethan-1-one]	> 10000	439
CNC(=O)N1CCn2c(C3CC3)nc(-c3cccc4cc(-c5cnn(C)c5)ncc34)c2C1 [Example 124, 3-cyclopropyl-N-methyl-1-(3-(1-methyl-1H-pyrazol-4-yl)isoquinolin-8-yl)-5,6-dihydroimidazo[1,5-a]pyrazine-7(8H)-carboxamide]	6480	2
CNC(=O)N1Cc2c(-c3cccc4cc(-c5cnn(C)c5)ncc34)nc(C3CC3)n2C(C)C1 (stereo not drawn) [Example 126, 3-cyclopropyl-N,5-dimethyl-1-(3-(1-methyl-1H-pyrazol-4-yl)isoquinolin-8-yl)-5,6-dihydroimidazo[1,5-a]pyrazine-7(8H)-carboxamide]	17100	39
CNC(=O)N1CCn2c(C3CCOCC3)nc(-c3cccc4nc(-c5cnn(C)c5)c(C(F)(F)F)cc34)c2C1 [Example 65, N-methyl-1-(2-(1-methyl-1H-pyrazol-4-yl)-3-(trifluoromethyl)quinolin-5-yl)-3-(tetrahydro-2H-pyran-4-yl)-5,6-dihydroimidazo[1,5-a]pyrazine-7(8H)-carboxamide]	13700	4
CC(=O)N1CCn2c(C3CC3)nc(N3CCCc4cc(-c5cnn(CCO)c5)ccc43)c2C1 [Example 121, 1-(3-cyclopropyl-1-(6-(1-(2-hydroxyethyl)-1H-pyrazol-4-yl)-3,4-dihydroquinolin-1(2H)-yl)-5,6-dihydroimidazo[1,5-a]pyrazin-7(8H)-yl)ethan-1-one]	> 25000	576
CNC(=O)N1CCn2c(C3CC(F)(F)C3)nc(-c3cccc4cc(-c5ccn(C)n5)ncc34)c2C1 [Example 79, 3-(3,3-difluorocyclobutyl)-N-methyl-1-(3-(1-methyl-1H-pyrazol-3-yl)isoquinolin-8-yl)-5,6-dihydroimidazo[1,5-a]pyrazine-7(8H)-carboxamide]	14800	6
CC(=O)N1CCn2c(C3CC3)nc(-c3ccc4c(c3)c(-c3c(C)noc3C)nn4C)c2C1 [Example 30, 1-(3-Cyclopropyl-1-(3-(3,5-dimethylisoxazol-4-yl)-1-methyl-1H-indazol-5-yl)-5,6-dihydroimidazo[1,5-a]pyrazin-7(8H)-yl)ethan-1-one]	> 25000	1180
CNC(=O)N1CCn2c(C3CC3)nc(-c3cncc4cc(-c5cnn(C)c5)c(C(F)F)cc34)c2C1 [Example 40, 3-Cyclopropyl-1-(6-(difluoromethyl)-7-(1-methyl-1H-pyrazol-4-yl)isoquinolin-4-yl)-N-methyl-5,6-dihydroimidazo[1,5-a]pyrazine-7(8H)-carboxamide]	4780	2
CNC(=O)N1CCn2c(C3CCOCC3)nc(-c3cccc4cc(-c5cn(C)nc5C)ncc34)c2C1 [Example 70, 1-(3-(1,3-dimethyl-1H-pyrazol-4-yl)isoquinolin-8-yl)-N-methyl-3-(tetrahydro-2H-pyran-4-yl)-5,6-dihydroimidazo[1,5-a]pyrazine-7(8H)-carboxamide]	12300	12
CNC(=O)N1CCn2c(C3CCS(=O)(=O)CC3)nc(-c3ccc4c(c3)c(-c3cnn(C)c3)nn4C)c2C1 [Example 15, 3-(1,1-Dioxothian-4-yl)-N-methyl-1-[1-methyl-3-(1-methylpyrazol-4-yl)indazol-5-yl]-6,8-dihydro-5H-imidazo[1,5-a]pyrazine-7-carboxamide]	21900	46
